Assay results reported in patent publication US20230181521A1, “IS[…] ANALOGS OF 5,6-METHYLENEDIOXY-2-AMINOINDANE (MDAI)” (Terran Biosciences, Inc., priority 2021, published 2023).
Structures can show the parent of a compound that is named as a salt.

Columns and labels:
[1] = Metabolic stability in human liver microsomes; format: in vitro ADME; details: for half-life at 0.25 μM: pH 7.4; for microsomal CLint at 0.25 μM: pH 7.4, read-out: CLint (μL/min/mg protein); for in vitro clearance compared with MDAI HCl salt (reference compound): tested as racemic mixtures
Description: Microsomal Assay: Human liver microsomes (20 mg/mL) were obtained. β-nicotinamide adenine dinucleotide phosphate, reduced form (NADPH), magnesium chloride (MgCl2), and dimethyl sulfoxide (DMSO) are purchased from Sigma-Aldrich.
Determination of Metabolic Stability: 7.5 mM stock solutions of test compounds of the above structural formula (e.g., of an embodiment or aspect of embodiment thereof described herein), or pharmaceutically acceptable salt thereof, are prepared in DMSO. […] The diluted microsomes are added to wells of a 96-well deep-well polypropylene plate in triplicate. […] Reactions are initiated by addition of pre-warmed NADPH solution. The final reaction volume is 0.5 mL and contains 4.0 mg/mL human liver microsomes, 0.25 μM test compound, and 2 mM NADPH in 0.1 M potassium phosphate buffer, pH 7.4, and 3 mM MgCl2. The reaction mixtures are incubated at 37° C., and […] aliquots are removed at 0, 5, 10, 20, and 30 minutes and added to shallow-well 96-well plates which contain […] of ice-cold ACN (acetonitrile) with internal standard to stop the reactions. The plates are stored at 4° C. for 20 minutes after which […] of water is added to the wells of the plate before centrifugation to pellet precipitated proteins. Supernatants are transferred to another 96-well plate and analyzed for amounts of parent remaining by LC-MS/MS using an Applied Bio-systems API 4000 mass spectrometer. The same procedure is followed for the non-labeled, such as the non-deuterated counterpart of the compound and the positive control, 7-ethoxycoumarin (1 μM). Testing is done in triplicate.
Data analysis: The in vitro T1/2s for test compounds are calculated from the slopes of the linear regression of % parent remaining (In) vs incubation time relationship.
k=−[slope of linear regression of % parent remaining (In) vs incubation time] The apparent intrinsic clearance is calculated using the following equation: […]
Data analysis is performed using Microsoft Excel Software.

[2] = system: Male Sprague-Dawley rats; test: Rat elevated zero maze test (model of anxiety); format: in vivo
Source text: The rat zero-maze model is a refined alternative to the plus-maze, the most widely used animal model of anxiety, and consists of an elevated annular platform, divided equally into four quadrants. Two opposite quadrants are enclosed by Perspex walls on both the inner and the outer edges of the platform, while the remaining two opposite quadrants are open being enclosed only by a Perspex “lip”. Animals will show a preference for the closed areas, and avoidance of the open sections is assumed to stem from a rodent's natural aversion to open, exposed spaces. The primary index of anxiety, which reflect changes in open arm preference, is the percentage of time spent on the open areas. A reduction in the amount of activity on the open areas is considered to reflect an increase in anxiety while an increase in time in the open arms is indicative of an anxiolytic effect. Other, ethologically-based behaviors are also assessed as indices of anxiety including total open arm entries, total line crossings, and the frequency of exploratory head dipping over the edge of the platform (HDIPS). • Shepherd, J K; Grewel, SS; Fletcher, A; Bill, DJ; Dourish, C T (1994) Behavioural and pharmacological validation of the elevated “zero-maze” as an animal model of anxiety. Psychopharmacol., 116:56-64.
Male Sprague-Dawley 200-250 g (Envigo UK) rats were used. Animals were group-housed (5 per cage; cage size: 40×40×20 cm) in a temperature-controlled environment (22±2° C.), under a 12 h light-dark cycle (lights on: 08:00 hours) for one week prior to testing. Food and water were freely available. Number of animals per group=5. Animals were moved into the experimental room 16-24 hours before testing.
The elevated 0-maze comprises a black Perspex annular platform (105 cm diameter, 10 cm width) elevated to 65 cm above ground level, divided equally into four quadrants. Two opposite quadrants are enclosed by clear red Perspex walls (27 cm high) on both the inner and outer edges of the platform, while the remaining two opposite quadrants are surrounded only by a Perspex “lip” (1 cm high) which serves as a tactile guide to animals on these open areas.
Subjects were weighed and tail marked before being injected. After a specified pre-treatment time, subjects were placed in a closed quadrant and a 5-min test period were recorded on videotape for subsequent analysis. The maze was cleaned with 5% methanol/water solution and dried thoroughly between test sessions. Behavioural measures comprise percentage time spent on the open areas (% TO). Animals are scored as being in the open area when all four paws were in an open quadrant and in the closed area only when all four paws have passed over the open-closed divide. All testing were carried out between 9.00 and 16.00 hours.
IP: MDAI (HCl salt with 82.94% free base content) was formulated in Vehicle 1 (Saline) for injection to concentrations of […] to provide doses of 0.15, 0.31, 0.625, 1.25 and 2.5 mg/kg when administered ip in 5 mL/kg dosing volumes.
Chlordiazepoxide was formulated in Vehicle 1 (saline) to a concentration of 1.2 mg/mL to provide a dose of 6 mg/kg when administered ip in 5 mL/kg dosing volumes.
35 male Sprague-Dawley rats in treatment groups of 2 or 5, was intraperitoneally dosed with either Vehicle 1 (saline) or MDAI at 1 of 5 dose levels (0.15, 0.31, 0.625, 1.25 and 2.5) or chlordiazepoxide (6 mg/kg) in 5 mL/kg injection volumes. Thirty min later at T=0, rats were individually placed in a closed arm of the zero-maze and behavior assessed by a “blind” observer using remote video monitoring over the subsequent 5 min. The animal was then removed and the maze carefully wiped with 5% methanol/water solution before the next test was begun. Three rats from the vehicle group, 3 rats from the 2.5 mg/kg MDAI group, and 3 rats from the CDP group were tested on a separate day from the other rats.
Data was analysed with Statistica software (Statsoft USA version 10.0). […]

[3] = Double-blind, randomized, placebo-controlled clinical trial of MDAI-assisted psychotherapy in PTSD; format: in vivo
Description: A multicenter, randomized, double-blind, placebo-controlled trial is conducted to assess the efficacy and safety of MDAI-assisted psychotherapy versus psychotherapy with placebo control in participants diagnosed with at least moderate post-traumatic stress disorder (PTSD).
This multicenter, randomized, double-blind, placebo-controlled trial is conducted at various sites in the United States with IRB approval from each study site. A flexible dose of MDAI hydrochloride salt or placebo, followed by a supplemental half-dose unless contraindicated by patient's previous response or medical history, is also administered during the Treatment Period with psychotherapy in at least 3 blinded monthly Experimental Sessions. The Supplemental Dose extends the duration of drug effects on the participants during an Experimental Session. An optional Risk Evaluation and Mitigation Strategy (REMS) Protocol may be implemented for MDAI and placebo-groups. The Treatment Period lasts for approximately 12 weeks. During the Treatment Period, each Experimental Session is followed by three Intervening Sessions of non-drug psychotherapy. Each Experimental Session involves an overnight stay. The Primary Outcome measure, the change in Clinician Administered PTSD Scale for DSM-5 (CAPS-5), is determined by a blinded Independent Rater (IR) pool multiple times throughout the study. The study consists of separate periods for each participant. Initially, prospective participants undergo a Screening Period involving an initial eligibility assessment, a medical history intake, informed consent, and enrollment of eligible participants. Next, a Preparation Period is undertaken for enrolled participants involving medication tapering and clinical baseline assessments to confirm each participant meets enrollment criteria. As part of the Preparation Period, a detailed assessment of co-morbidities to PTSD is recorded. Participants may remain on prescribed courses of selective serotonin reuptake inhibitor (SSRI) or serotonin and norepinephrine reuptake inhibitor (SNRI) treatment. Dosages and/or frequency of administration of a prescribed SSRI or SNRI may be adjusted to fit within study parameters. Participants may be required to taper a prescribed course of medication in order to maintain eligibility within the study. The Treatment Period consists of three monthly Experimental Sessions and associated Intervening Sessions of integrative behavioral psychotherapy. The Treatment Period lasts approximately 12 weeks. Following the Treatment Period is a Follow-up Period and Study Conclusion. During the Follow-up Period and Study Conclusion, participants complete 4 weeks with no study visits, followed by a Study Conclusion visit.
This study compares the effects of three blinded Experimental Sessions of psychotherapy in combination with flexible doses of MDAI or placebo administered as described below. Non-drug preparatory and intervening psychotherapy sessions are also included. Patient's weight is determined for dosage calculation. Initial dose is 100 mg unless this will result in a dosage of less than 1.5 mg/kg of patient weight. Initial dose thereby adjusted upward in 50 mg increments to deliver the lowest dose possible of at least 1.5 mg/kg of patient weight. Initial dose for Experimental Session 2 and 3 is cumulative dose calculated by adding the initial dose plus REMS protocol dose used the previous Experimental Session for each patient.
Randomization occurs prior to the initiation of Experimental Session 1. Each participant is provided the next randomized number in a sequence by a blinded study monitor. Participants are then randomized, according to a computer-generated randomization schedule, […] to MDAI or placebo. The randomization schedule is prepared and implemented by an independent statistician. Participants, clinicians, and study teams are blinded to treatment allocation. MDAI treatment groups may be subjected to anxiogenic effects due to underdosing of participants. […]

[4] = cited from earlier work
[5] = Progress in Neuro-Psychopharmacology & Biological Psychiatry 69, 2016, 49-59; cited from earlier work
[6] = 6 mg/kg ip, 30 min before test, vs vehicle
[7] = at Study Conclusion, vs placebo-treated controls

Structure (SMILES): [2H]C1(N)Cc2cc3c(cc2C1([2H])[2H])OCO3 (racemic) [Compound 3, 6,7,7-Trideuterio-5H-cyclopenta[f][1,3]benzodioxol-6-amine hydrochloride]
- half-life at 0.25 μM [1]: 7.42 h
- microsomal CLint at 0.25 μM [1]: 3.12 µL/min/mg
- in vitro clearance compared with MDAI HCl salt (reference compound) [1]: significantly lower

Structure (SMILES): [2H]C1([2H])Oc2cc3c(cc2O1)C([2H])([2H])C([2H])(N)C3 (racemic) [Compound 4, 2,2,6,7,7-Pentadeuterio-5H-cyclopenta[f][1,3]benzodioxol-6-amine hydrochloride]
- half-life at 0.25 μM [1]: 7.97 h
- microsomal CLint at 0.25 μM [1]: 2.9 µL/min/mg
- in vitro clearance compared with MDAI HCl salt (reference compound) [1]: significantly lower

Structure (SMILES): CNC1=Nc2ccc(Cl)cc2C(c2ccccc2)=[N+]([O-])C1 [CDP, Chlordiazepoxide]
- frequency of HDIPS [2, 6]: trend towards increased
- percentage of time in the open arms (% TO) [2, 6]: significant increase
- total line crossings [2, 6]: trend towards increased
- total open arm entries [2, 6]: trend towards increased

Structure (SMILES): [2H]C1([2H])Oc2cc3c(cc2O1)CC(N)C3 [Compound 1, 2,2-Dideuterio-6,7-dihydro-5H-cyclopenta[f][1,3]benzodioxol-6-amine Hydrochloride]
- half-life and intrinsic clearance compared to MDAI HCl (reference compound) [1]: exhibit differences
- half-life at 0.25 μM [1]: 3.27 h
- microsomal CLint at 0.25 μM [1]: 7.09 µL/min/mg

Structure (SMILES): [2H]C1([2H])Oc2cc3c(cc2O1)C([2H])([2H])C([2H])(N)C3([2H])[2H] [Compound 2, 2,2,5,5,6,7,7-Heptadeuteriocyclopenta[f][1,3]benzodioxol-6-amine Hydrochloride]
- half-life and intrinsic clearance compared to MDAI HCl (reference compound) [1]: exhibit differences
- half-life at 0.25 μM [1]: 3.83 h
- microsomal CLint at 0.25 μM [1]: 6.04 µL/min/mg

Structure (SMILES): [2H]C1([2H])c2cc3c(cc2C([2H])([2H])C1([2H])N)OCO3 [Compound 5, 5,5,6,7,7-Pentadeuteriocyclopenta[f][1,3]benzodioxol-6-amine hydrochloride]
- half-life at 0.25 μM [1]: 3.42 h
- microsomal CLint at 0.25 μM [1]: 6.78 µL/min/mg

Structure (SMILES): NC1Cc2cc3c(cc2C1)OCO3 [MDAI, 5,6-Methylenedioxy-2-aminoindane]
- half-life at 0.25 μM [1]: 3.42 h
- microsomal CLint at 0.25 μM [1]: 6.78 µL/min/mg
- CAPS-5 assessments compared to placebo-treated controls ([3]; Intervening Session 1C, 2C, 3C and Study Conclusion): Significant improvements
- CAPS-5 assessment compared to the placebo group ([3]; PTSD participants, at Study Conclusion): significant mean reduction
- lessening daytime sleepiness as measured by ESS ([3]; at Study Conclusion): significant improvement
- adverse anxiogenic incidents [3, 7]: without a significant increase
- clinician-rated functional impairment score as measured by SDS [3, 7]: significant improvement
- depression as measured by HAM-D [3, 7]: significant improvement
- Oral MDAI dose, drug activity level Threshold [4]: 40 mg
- Oral MDAI dose, drug activity level Very Strong [4]: ≥300 mg
- toxicity reported associated with MDAI intoxication [5]: serotonin syndrome
- percentage of time in the open arms (% TO) ([2]; 0.625 mg/kg ip, 30 min before test, vs vehicle or any other dose (FIG. 1)): numerical increase
- percentage of time in the open arms (% TO) ([2]; doses too low or too high (0.15, 0.31, 1.25, 2.5 mg/kg ip)): opposite effect
- total open arm entries ([2]; higher and lower doses (0.15, 0.31, 1.25, 2.5 mg/kg ip), FIG. 2): trended towards an anxiogenic effect
- total open arm entries ([2]; middle dose (0.625 mg/kg ip), FIG. 2): increase vs placebo that trended towards significance

Structure (SMILES): COc1ccc2c(c1)[C@]13CCCC[C@@H]1[C@H](C2)N(C)CC3 [dextromethorphan]
- half-life at 0.25 μM [1]: 0.433 h
- microsomal CLint at 0.25 μM [1]: 53.5 µL/min/mg
